Experimental findings from patent US5783597A, “2,5-disubstituted thiophenes: inhibitors of 5-lipoxygenase and inducible cyclooxygenase (COX-2) enzymes, composition and use” (Ortho Pharmaceutical Corporation, priority 1997, dated 1998) are described below.

One assay has as its system LTB4 production. As to the kind of experiment: Ex vivo LTB4 production in peripheral (whole) blood of beagle dogs after oral dosing (Procedure IV). As to the method: (§1) Sterile perforated teflon chambers (wiffle golf balls) were surgically implanted subcutaneously in the dorsal neck fold of beagle dogs (8-13 kg, mixed sex). After a recovery period of 1 month, a 1 ml sample of fluid exudate from each dog was aspirated from within the chamber using a 1 ml syringe and 20 gauge 1 inch needle inserted through one of the perforations in the ball. Immediately after obtaining the sample, 1.5 ml of 0.33% sterile carrageenan lambda (Sigma Chemical Co., St. Louis, Mo.) was injected into the chamber. Dilutions of the baseline samples were made in saline and analyzed for leukocyte count using a Coulter Counter (6.08-50 μm range). The sample was also analyzed for concentrations of PGE2 and LTB4 by adding 200 μl of sample to 1 ml ethanol and centrifuging the precipitate (1,500 X g, 7 min). The supernatant was aspirated and stored at 0° C. until enzyme linked immunosorbant assays (ELISAs) were performed (ELISA Technologies, Lexington, Ky.). Samples were also drawn at 5 and 24 hours post carrageenan challenge and treated in a similar manner. […]
(§2) Drug effects can be evaluated on several important aspects of inflammation using this in-vivo assay. […] Selectivity of a COX inhibitor can be determined by comparing PGE2 inhibition in peripheral blood (COX-1) to that of the inflammatory fluid exudate in the chamber (COX-2).

Assay [1] deals with inflammatory cells (leukocyte influx). Kind of assay: Carrageenan-induced inflammation in subcutaneous chambers in beagle dogs: cellular (leukocyte) influx (Procedure IV). To be noted: oral. The assay is classed as in vivo. Here is the method:
Carrageenan-Induced Localized Inflammation In Subcutaneous Chambers Implanted In Beagle Dogs
as §1, with “Ky.).” for “Ky.). Samples were also drawn at 5 and 24 hours post carrageenan challenge and treated in a similar manner.”
as §2

Assay [2] concerns the target T1, 5-lipoxygenase (5-LO) (Rattus norvegicus, UniProt P12527).
T1 construct: endogenous in cells; host or cells: intact RBL-1 (rat basophilic leukemia) cells, stimulated with calcium ionophore A23187
T1 sequence (P12527 1-673): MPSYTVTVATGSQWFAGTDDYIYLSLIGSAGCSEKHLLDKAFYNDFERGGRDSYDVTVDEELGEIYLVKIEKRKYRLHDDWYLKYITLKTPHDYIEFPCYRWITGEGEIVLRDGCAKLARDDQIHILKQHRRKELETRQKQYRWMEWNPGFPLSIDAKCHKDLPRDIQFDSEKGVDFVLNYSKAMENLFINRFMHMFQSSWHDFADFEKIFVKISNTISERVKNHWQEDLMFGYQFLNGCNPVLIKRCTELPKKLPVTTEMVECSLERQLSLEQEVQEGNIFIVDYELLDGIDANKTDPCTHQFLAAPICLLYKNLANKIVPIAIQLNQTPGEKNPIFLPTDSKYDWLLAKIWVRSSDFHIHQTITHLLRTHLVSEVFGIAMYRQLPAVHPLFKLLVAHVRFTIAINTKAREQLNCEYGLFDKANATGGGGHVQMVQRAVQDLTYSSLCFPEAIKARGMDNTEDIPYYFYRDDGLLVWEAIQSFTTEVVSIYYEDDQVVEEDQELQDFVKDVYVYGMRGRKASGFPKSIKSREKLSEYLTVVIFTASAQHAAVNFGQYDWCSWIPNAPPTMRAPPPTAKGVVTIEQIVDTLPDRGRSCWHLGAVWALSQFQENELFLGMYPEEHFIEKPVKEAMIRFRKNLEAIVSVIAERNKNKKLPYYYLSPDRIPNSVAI
Kind of assay: RBL-1 cell 5-lipoxygenase and cyclooxygenase - Whole cells (Procedure II). The format is cell-based. The following applies: intact RBL-1 cells, 5-HETE; read-out: Procedure II (5-LO) Wh Cell IC50. Here is the method:
RBL-1 Cell 5-Lipoxygenase and cyclooxygenase - Whole cells
The ability to inhibit 5-LO and CO in intact RBL-1 cells was also evaluated. […] Cells were collected by centrifugation, washed once in HBSS, and resuspended at a concentration of 1×10^5 cells/mL. Cells were incubated in the presence of vehicle or drug then centrifuged at 800×g for 10 minutes at 4° C. The supernatant was removed by aspiration and the cells were resuspended in 0.5 mL of HBSS. […] The conversion of M to 5-LO products was initiated by the addition of 10 μL (50 uCi) of 1-^14 C-AA. Products were isolated by acidification and extraction, followed by thin layer chromatography analysis as described above. Radioactive areas corresponding to authentic 5-LO (5-HETE) and CO (PGD2) products were quantitated by the Bioscan 2000 Imaging System.

Assay [3] addresses T1, 5-lipoxygenase (5-LO). As to the kind of experiment: RBL-1 cell 5-lipoxygenase and cyclooxygenase - Homogenate (Procedure I). The assay is classed as biochemical. To be noted: RBL-1 homogenate supernatant, 5-HETE; read-out: Procedure I (5-LO) Homog. IC50. As to the method: RBL-1 cell 5-lipoxygenase and cyclooxugenase - Homogenate
Rat basophilic leukemia cells (RBL-1; 5×10^7 viable cells/mL) were disrupted by homogenization on ice (four 20 sec bursts) with a Brinkman polytron. […] The homogenate was then centrifuged at 9,220×g for 48 minutes at 4° C. The pellet was discarded and the supernatant was saved as the source of enzymes. The supernatant was pre-incubated for five minutes at 37° C. in the presence of 2 mM of CaCl2 and compound or vehicle (1% DMSO). The conversion of AA into products by CO and LO was initiated by adding 10 μL (50 μCi) of 1-^14 C-AA to each tube and incubated at 37° C. for 20 minutes. The reaction was stopped by adjusting the pH of each sample to 3 to 3.5 with 2M formic acid. Samples were extracted with three volumes of chloroform to isolate the products of 5-LO formed during the reaction. Fractions were dried under nitrogen, then resuspended in 40 μL of chloroform and spotted onto silica gel HL plates. The plates were developed in A-9 solvent. The dried plates were analyzed using a Bioscan Imaging TLC scanner to determine the percentage of radiolabelled M converted to 5-HETE (LO product) and PGD2 (CO product) in each sample.

For the molecule `CS(=O)(=O)Nc1ccc(Oc2ccc(F)cc2)s1` [Example 1], the ED50 in the assay on LTB4 production (Canis lupus familiaris, 5 h, five hours after oral administration, ex vivo, read-out: inhibition of peripheral LTB4 production, IC50) was 4.4 mg/kg; in assay [1] (Canis lupus familiaris, Leukocyte, inflammatory chamber exudate, read-out: ED50 for inhibition of cellular influx), less than 0.01 mg/kg. Besides, the “inhibition of LTB4 production in whole blood” value with LTB4 production (at 24 hours following dosing, oral) is recorded as “No inhibition of LTB4 production in whole blood was detected”. The “inhibition of accumulation of inflammatory cells in the exudate” value in assay [1] (inflammatory chambers) was “dose related inhibition”. Further, the IC50 at 5-lipoxygenase (5-LO) [2] came out at 460 nM; on 5-lipoxygenase (5-LO) [3], 130 nM.
